Experimental findings from ChEMBL document CHEMBL1146315, “Synthesis and evaluation of unsaturated caprolactams as interleukin-1beta converting enzyme (ICE) inhibitors” (Bioorg Med Chem, 2007) are described below.

One data set concerns the target T1, Caspase-1 (Homo sapiens, UniProt P29466).
T1 sequence (P29466 whole entry): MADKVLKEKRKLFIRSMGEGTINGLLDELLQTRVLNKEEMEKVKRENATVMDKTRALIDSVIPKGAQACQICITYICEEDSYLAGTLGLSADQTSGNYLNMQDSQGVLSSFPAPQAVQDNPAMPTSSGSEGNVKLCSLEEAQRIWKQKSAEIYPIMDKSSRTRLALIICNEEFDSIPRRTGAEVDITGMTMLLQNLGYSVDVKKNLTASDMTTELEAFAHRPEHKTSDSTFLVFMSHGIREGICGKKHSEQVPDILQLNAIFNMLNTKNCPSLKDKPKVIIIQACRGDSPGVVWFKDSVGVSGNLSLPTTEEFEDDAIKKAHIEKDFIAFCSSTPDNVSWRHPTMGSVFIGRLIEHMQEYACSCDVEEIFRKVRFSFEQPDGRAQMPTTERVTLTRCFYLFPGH
In words: Inhibition of ICE.

For another data set, the system named is THP-1. In words: Inhibition of IL1-beta production in THP1 cells. The format is functional, cell-based. The note with it: Homo sapiens.
The target in a further data set is T2, Caspase-3 (Homo sapiens, UniProt P42574).
T2 sequence (P42574 whole entry): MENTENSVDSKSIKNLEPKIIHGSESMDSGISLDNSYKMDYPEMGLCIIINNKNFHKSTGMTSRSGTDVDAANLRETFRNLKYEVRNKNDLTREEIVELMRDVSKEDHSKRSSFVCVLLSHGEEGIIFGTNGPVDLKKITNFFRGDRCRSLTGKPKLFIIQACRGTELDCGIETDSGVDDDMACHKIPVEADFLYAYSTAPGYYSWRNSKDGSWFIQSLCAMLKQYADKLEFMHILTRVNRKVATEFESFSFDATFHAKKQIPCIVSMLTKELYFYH
The data set can be described thus: Inhibition of caspase 3.

The next data set has as its target Caspase-8 (Homo sapiens, UniProt Q14790). The data set can be described thus: Inhibition of caspase 8.
Data set [1] can be described thus: Cmax in Sprague-Dawley rat at 30 mg/kg, po. The data set is classed as ADME, organism-based. On the set-up: dose 30 mg/kg, route oral. The following applies: in vivo.
Data set [2] can be described thus: Half life in Sprague-Dawley rat at 30 mg/kg, po. The format is ADME, organism-based. Details: dose 30 mg/kg, route oral. The following applies: in vivo.
A short description of data set [3]: (§1) AUC (0 to infinity) in Sprague-Dawley rat at 30 mg/kg, po. Details: time infinity, dose 30 mg/kg, route oral. The note with it: Sprague-Dawley, plasma. The data set is classed as ADME, organism-based, Plasma.
Data set [4] can be described thus: (§2) Bioavailability in Sprague-Dawley rat at 30 mg/kg, po. The format is ADME, organism-based. The note with it: Sprague-Dawley, in vivo.
Data set [5] concerns Rattus norvegicus. Described as §2. The following applies: in vivo. The data set is classed as ADME, organism-based.
A short description of data set [6]: Cmax in Sprague-Dawley rat at 30 mg/kg, iv. The data set is classed as ADME, organism-based. Details: dose 30 mg/kg, route intravenous. The note with it: in vivo.
Data set [7] has as its system Rattus norvegicus. In words: AUC (0 to infinity) in Sprague-Dawley rat at 30 mg/kg, iv. Details: time infinity, dose 30 mg/kg, route intravenous. The following applies: in vivo. The format is ADME, organism-based, Plasma.
Data set [8] is described as follows: Half life in Sprague-Dawley rat at 30 mg/kg, iv. The data set is classed as ADME, organism-based. Details: dose 30 mg/kg, route intravenous. The following applies: in vivo.
The test system of data set [9] is Rattus norvegicus. Described as §1. The format is ADME, organism-based, Plasma. Details: time infinity, dose 30 mg/kg, route oral. The note with it: in vivo.

Sequence of Caspase-8 (Q14790 217-374 limits assumed): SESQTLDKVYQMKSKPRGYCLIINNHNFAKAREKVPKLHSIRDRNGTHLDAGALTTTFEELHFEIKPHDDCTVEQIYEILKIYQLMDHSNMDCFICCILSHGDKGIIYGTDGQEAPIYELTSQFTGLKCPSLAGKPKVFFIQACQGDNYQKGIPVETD
Sequence of Caspase-8 (Q14790 385-479 limits assumed): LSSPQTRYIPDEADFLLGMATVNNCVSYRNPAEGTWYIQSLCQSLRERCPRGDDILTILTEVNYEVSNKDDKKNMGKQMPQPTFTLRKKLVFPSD

As for `CC1=CC[C@H](NC(=O)c2ccc3ccccc3c2)C(=O)N(CC(=O)N[C@H]2CC(=O)OC2O)C1` (some centres undefined), the IC50 – broadly, the concentration at which inhibition is half-maximal – is 19 nM against Caspase-1, 153 nM with THP-1, above 10000 nM against Caspase-3 and 2690 nM on Caspase-8.

Turning to `O=C(CN1CC=CC[C@H](NC(=O)c2nccc3ccccc23)C1=O)N[C@H]1CC(=O)OC1O` (some centres undefined), the IC50 was 27 nM on Caspase-1, 586 nM in the data set on THP-1, above 10000 nM at Caspase-3 and 2930 nM against Caspase-8.

With `O=C(CN1CC=CC[C@H](NC(=O)c2cccc(Cl)c2)C1=O)N[C@H]1CC(=O)OC1O` (some centres undefined), the IC50 was 29 nM against Caspase-1, 383 nM in the data set on THP-1, above 10000 nM against Caspase-3 and 1180 nM at Caspase-8.

As to `O=C(CN1CC(CO)=CC[C@H](NC(=O)c2ccc3ccccc3c2)C1=O)N[C@H]1CC(=O)OC1O` (some centres undefined), the IC50 against Caspase-1 is 22 nM; in the data set on THP-1 it was 543 nM; on Caspase-3 it was above 10000 nM; against Caspase-8, 2110 nM.

Take `COc1cccc(C(=O)N[C@H]2CC=CCN(CC(=O)N[C@H]3CC(=O)OC3O)C2=O)c1` (some centres undefined): the IC50 on Caspase-1 was 53 nM; in the data set on THP-1, 1230 nM; against Caspase-3 it was above 10000 nM; against Caspase-8, 1230 nM.

On to `CCOC1OC(=O)C[C@@H]1NC(=O)CN1CC(CNC(=O)c2ccc(OC)cc2)=CC[C@H](NC(=O)c2ccc3ccccc3c2)C1=O` (some centres undefined), for which the Cmax (commonly the peak of the concentration-time curve) in data set [1] turned out to be 9 ng/mL. The half-life (in general, the time in which the quantity being followed falls by half) in [2] was 7.1 h. In data set [3], the AUC(0-inf) (usually the area under the concentration-time curve extrapolated to infinity) came to 30 ng·h/mL.

In the case of `O=C[C@H](CC(=O)O)NC(=O)[C@@H]1CC[C@@H]2C/C=C\C[C@H](NC(=O)c3nccc4ccccc34)C(=O)N21`, the IC50 on Caspase-1 was determined as 4 nM; in the data set with THP-1, 188 nM.

On to `COc1ccc(C(=O)NCC2=CC[C@H](NC(=O)c3ccc4ccccc4c3)C(=O)N(CC(=O)N[C@H]3CC(=O)OC3O)C2)cc1` (some centres undefined), for which the IC50 against Caspase-1 was determined as 1 nM; with THP-1, 95 nM; against Caspase-3, 1130 nM; against Caspase-8, 471 nM.

For `O=C(CN1CC(CNS(=O)(=O)c2ccccc2)=CC[C@H](NC(=O)c2ccc3ccccc3c2)C1=O)N[C@H]1CC(=O)OC1O` (some centres undefined), the IC50 was 3 nM against Caspase-1, 326 nM in the data set on THP-1, 6810 nM on Caspase-3 and 109 nM against Caspase-8.

Compound `CCOC1OC(=O)C[C@@H]1NC(=O)CN1CC=CC[C@H](NC(=O)c2ccc3ccccc3c2)C1=O` (some centres undefined) displayed a Cmax in data set [1] of 9360 ng/mL. In [4], the bioavailability – broadly, the share of a dose that reaches the circulation, judged against a reference dose that is usually intravenous – is above 90%. Besides, the half-life in data set [2] is 3.4 h. The same compound had an AUC(0-inf) in data set [3] of 21000 ng·h/mL.

`O=C[C@H](CC(=O)O)NC(=O)[C@@H]1CCCN2C(=O)CC[C@H](NC(=O)c3nccc4ccccc34)C(=O)N12` [VRT-18858] registered an IC50 against Caspase-1 of 4 nM.

In turn, `CCOC1OC(=O)C[C@@H]1NC(=O)[C@H](C)N1CC=CC[C@H](NC(=O)c2ccc3ccccc3c2)C1=O` (some centres undefined) registered a Cmax in [1] of 720 ng/mL. In addition, in [2], the half-life was 5.1 h. In data set [3], this compound gave an AUC(0-inf) of 4530 ng·h/mL.

For `C[C@@H](C(=O)N[C@H]1CC(=O)OC1O)N1CC=CC[C@H](NC(=O)c2ccc3ccccc3c2)C1=O` (some centres undefined), the IC50 turned out to be 1 nM at Caspase-1, 36 nM with THP-1, 7510 nM against Caspase-3 and 162 nM on Caspase-8.

Take `O=C(CN1CC=CC[C@H](NC(=O)c2cc(Cl)ccc2Cl)C1=O)N[C@H]1CC(=O)OC1O` (some centres undefined): the IC50 is 15 nM against Caspase-1, 71 nM in the data set with THP-1, above 10000 nM against Caspase-3 and 554 nM on Caspase-8.

`COc1ccccc1C(=O)NCC1=CC[C@H](NC(=O)c2ccc3ccccc3c2)C(=O)N(CC(=O)N[C@H]2CC(=O)OC2O)C1` (some centres undefined): the IC50 on Caspase-1 turned out to be 2 nM; with THP-1 it was 1340 nM; against Caspase-3, 3370 nM; on Caspase-8, 887 nM.

As for `COc1cccc(C(=O)NCC2=CC[C@H](NC(=O)c3ccc4ccccc4c3)C(=O)N(CC(=O)N[C@H]3CC(=O)OC3O)C2)c1` (some centres undefined), the IC50 was 1 nM on Caspase-1, 243 nM in the data set on THP-1, 1080 nM on Caspase-3 and 448 nM at Caspase-8.

As for `O=C(CN1CC/C=C\C[C@H](NC(=O)c2nccc3ccccc23)C1=O)N[C@H]1CC(=O)OC1O` (some centres undefined), the IC50 against Caspase-1 is 77 nM.

`O=C(CN1CC(CNCc2ccccc2)=CC[C@H](NC(=O)c2ccc3ccccc3c2)C1=O)N[C@H]1CC(=O)OC1O` (some centres undefined): the half-inhibitory concentration (IC50) on Caspase-1 is 7 nM; in the data set with THP-1, 232 nM; at Caspase-3 it was above 10000 nM; against Caspase-8, 10000 nM.

`O=C(CN1CC(CNC(=O)c2ccccc2)=CC[C@H](NC(=O)c2ccc3ccccc3c2)C1=O)N[C@H]1CC(=O)OC1O` (some centres undefined): the IC50 was found to be 2 nM against Caspase-1, 466 nM in the data set with THP-1, 1700 nM on Caspase-3 and 1080 nM on Caspase-8.

Turning to `O=C(CN1CC=CC[C@H](NC(=O)c2cccc(C(F)(F)F)c2)C1=O)N[C@H]1CC(=O)OC1O` (some centres undefined), the IC50 against Caspase-1 is 11 nM; with THP-1, 554 nM; at Caspase-3, above 10000 nM; at Caspase-8 it was 1960 nM.

For `O=C(CN1CC=CC[C@H](NC(=O)c2ccccc2)C1=O)N[C@H]1CC(=O)OC1O` (some centres undefined), the half-inhibitory concentration (IC50) against Caspase-1 is 168 nM; in the data set with THP-1, 1080 nM; against Caspase-3, above 10000 nM; against Caspase-8, 4200 nM.

As for `O=C(CN1CC=CC[C@H](NC(=O)c2cc3ccccc3s2)C1=O)N[C@H]1CC(=O)OC1O` (some centres undefined), the IC50 is 20 nM against Caspase-1, 712 nM in the data set on THP-1, above 10000 nM against Caspase-3 and 1450 nM against Caspase-8.

Turning to `O=C(CN1CC(CSCc2ccccc2)=CC[C@H](NC(=O)c2ccc3ccccc3c2)C1=O)N[C@H]1CC(=O)OC1O` (some centres undefined), the IC50 is 8 nM against Caspase-1, 1280 nM with THP-1, above 10000 nM on Caspase-3 and 1610 nM on Caspase-8.

Regarding `C[C@H](C(=O)N[C@H]1CC(=O)OC1O)N1CC=CC[C@H](NC(=O)c2ccc3ccccc3c2)C1=O` (some centres undefined), the IC50 at Caspase-1 is 13 nM; in the data set with THP-1, 871 nM; at Caspase-3 it was above 10000 nM; against Caspase-8, 537 nM.

As for `O=C[C@H](CC(=O)O)NC(=O)[C@@H]1COC[C@@H]2C/C=C\C[C@H](NC(=O)c3nccc4ccccc34)C(=O)N21`, the IC50 turned out to be 3 nM at Caspase-1 and 182 nM in the data set on THP-1.

In the case of `O=C(CN1CC=CC[C@H](NC(=O)c2ccc3ccccc3c2)C1=O)N[C@H]1CC(=O)OC1O` (some centres undefined), the Cmax is 264 ng/mL in [1] and 6790 ng/mL in data set [6]. The F with Rattus norvegicus [5] amounted to 2%. Moreover, the IC50 at Caspase-1 is 14 nM; in the data set on THP-1, 100 nM; against Caspase-3 it was above 10000 nM; against Caspase-8, 2160 nM. Also, the AUC (as a rule, the area under the concentration-time curve, a measure of exposure) was determined as 1970 ng·h/mL in the data set on Rattus norvegicus [7] and 320 ng·h/mL with Rattus norvegicus [9]. Also, the half-life is 0.2 h in [8] and 1.3 h in data set [2].
